The species entered for assay [1] is Oryctolagus cuniculus. Kind of assay: Compound was evaluated for vasorelaxant activity determined using potassium-depolarized rabbit thoracic aorta. Type of assay: functional.
Assay [2] deals with Rattus norvegicus. Kind of assay: In vivo antihypertensive activity of compound was determined at 45 umol/kg administered orally in spontaneously hypertensive rats; % reduction in blood pressure. The assay is classed as functional.

From ChEMBL document CHEMBL1151533, “Dihydropyrimidine calcium channel blockers 51: bicyclic dihydropyrimidines as potent mimics of dihydropyridines” (Bioorg Med Chem Lett, 1991) come the findings set out here.

Molecules are shown by their SMILES. Where only a bound is given, the exact number is not on record here.

What is called IC50 is the point on the concentration scale where inhibition reaches its midpoint. A higher IC50 goes with weaker potency in that assay.

Turning to `CCOC(=O)N1C(=S)N=C(C)/C(=C(/O)OCC)C1c1cccc([N+](=O)[O-])c1` (configuration not stated), 3 nM corresponded to half-maximal inhibition in assay [1] (IC50).

`CC1=Nc2cc(=O)[nH]n2C(c2cccc([N+](=O)[O-])c2)/C1=C(/O)OC(C)C` (configuration not stated) returned an IC50 in assay [1] of 318 nM.

Consider `CC1=Nc2c(C#N)cnn2C(c2cccc([N+](=O)[O-])c2)/C1=C(/O)OC(C)C` (configuration not stated), for which 7 nM corresponded to half-maximal inhibition in assay [1] (IC50).

Regarding `CC1=Nc2cc(=O)n(Cc3ccccc3)n2C(c2cccc([N+](=O)[O-])c2)/C1=C(/O)OC(C)C` (configuration not stated), the IC50 in assay [1] was 5 nM.

In assay [1], `CC1=Nc2cc(=O)n(S(=O)(=O)c3ccccc3)n2C(c2cccc([N+](=O)[O-])c2)/C1=C(/O)OC(C)C` (configuration not stated) displayed an IC50 of 10 nM.

Turning to `COC(=O)C1=C(C)NC(C)=C(C(=O)OC)C1c1ccccc1[N+](=O)[O-]` [NIFEDIPINE], the IC50 in assay [1] was 2.5 nM. Besides, the Reduction in assay [2] was found to be 33%.

On to `CCOC(=O)C1=C(C)N=C2NCCCN2C1c1cccc(Cl)c1Cl` (configuration not stated), for which, in assay [1], the IC50 came out at 2890 nM.

`CCCNC(=O)n1c(=O)cc2n1C(c1cccc([N+](=O)[O-])c1)/C(=C(/O)OC(C)C)C(C)=N2` (configuration not stated) yielded an IC50 in assay [1] of 23 nM.

For the compound `CC1=Nc2c(C(N)=O)cnn2C(c2cccc([N+](=O)[O-])c2)/C1=C(/O)OC(C)C` (configuration not stated), the IC50 in assay [1] was over 1000 nM.

Regarding `CCO/C(O)=C1/C(C)=Nc2nc(SC)nn2C1c1cccc(Cl)c1Cl` (configuration not stated), the IC50 in assay [1] was determined as 620 nM.

`COC(=O)c1cnn2c1N=C(C)/C(=C(\O)OC(C)C)C2c1cccc([N+](=O)[O-])c1` (configuration not stated) had an IC50 in assay [1] of 1160 nM.

Regarding `CC1=Nc2cc(=O)n(C(=O)c3ccccc3)n2C(c2cccc([N+](=O)[O-])c2)/C1=C(/O)OC(C)C` (configuration not stated), in assay [1], the IC50 was determined as 54 nM.

The compound `CCO/C(O)=C1/C(C)=Nc2nccn2C1c1cccc(Cl)c1Cl` (configuration not stated) had an IC50 in assay [1] of 96 nM.

In turn, `CCO/C(O)=C1/C(C)=Nc2ccnn2C1c1cccc(Cl)c1Cl` (configuration not stated) returned an IC50 in assay [1] of 21 nM.

`CCO/C(O)=C1/C(C)=Nc2c(C#N)cnn2C1c1cccc(Cl)c1Cl` (configuration not stated) showed an IC50 in assay [1] of 1.5 nM. The compound also displayed a Reduction in assay [2] of 20%.
